The subject of this experiment is MMP-13 gene expression. The experiment can be described thus: PTH stimulated MMP-13 gene expression in UMR 106-01 cells, real time quantitative RT-PCR. The format is cell-based, rat. Particulars: for effect on PTH stimulated MMP-13 gene expression (in words): summary of the table's results. As for the experimental part: Parathyroid hormone (PTH) stimulates the transcription of MMP-13. The experimental method utilizes PTH to stimulate MMP-13 transcription in UMR 106-01 cells, which are cells derived from a rat osteoblastic cell line. The UMR 106-01 cell line provides useful model system for studying effects of PTH on osteoblasts in vitro. See, e.g., Qin, L. et al. Journal of Biological Chemistry, 278(22), 19723 (2003).
The UMR 106-01 cells were cultured in Eagle's minimal essential medium (EMEM) supplemented with 25 mM Hepes 7.4, 1% nonessential amino acids, 100 units/ml penicillin, 100 μg/ml streptomycin and 5% fetal bovine serum.
UMR 106-01 cells were seeded in 12-well plates and cultured for 2-3 days in cell culture media. When cells were confluent, the cell culture media was changed to 1% fetal bovine serum (not 5% fetal bovine sertn) for overnight cell starvation. The cells were preincubated with active ingredient for 15 min and then incubated with PTH (10^−8 M) for 4 hours.
Total RNA from UMR 106-01 cells stimulated with or without PTH was isolated with TRIzol reagent. Total RNA (0.1 μg) was reverse-transcribed to cDNA with the Invitrogen Superscript kit according to the manufacturer's instructions. PCR was performed on cDNA using primers, and the sequences used are listed below. All were amplified by adding 2.5 μl of cDNA to the PCR mixture (22.5 μl) containing each primer (0.2 μM) and 12.5 μl of the Platinum SYBR Green qPCR SuperMix UDG (Invitrogen). The reactions were pre-incubated at 50° C. for 2 minutes for decontamination of dU-containing DNA by UDG, then at 95° C. for 2 minutes to inactivate UDG and activate Taq. The PCR program continued for 49 cycles of denaturation at 95° C. for 15 seconds, annealing and elongation of the primers at 60° C. for 30 seconds. Relative quantification of gene expression was determined by using the 2-delta delta CT method where fold changes in gene expression are relative to control samples. All samples were normalized to β-actin.

[1] abbreviates: PTH (10^−8 M, 4 hours) + active 10 ppm (15 min preincubation).
The mark [2] stands for this setting: active alone (no PTH), 10 ppm in simple solution.

As to `Oc1ccc(C=Cc2cc(O)cc(O)c2)cc1` [Resveratrol, 3,5,4′-trihydroxystilbene], the “effect on PTH stimulated MMP-13 gene expression (in words)” value (from here on “effect”) is given as “decreases the expression”. For the same compound, where the note is “PTH (10^−8 M, 4 hours) + active 0.1 ppm (15 min preincubation)”, the “fold change in MMP-13 gene expression relative to the control sample, Average” value was found to be 46.02 fold. Further, the “fold change in MMP-13 gene expression relative to the control sample, Average” value (PTH (10^−8 M, 4 hours) + active 1 ppm (15 min preincubation)) turned out to be 19.97 fold. In addition, the “fold change in MMP-13 gene expression relative to the control sample, Average” value under setting [1] amounted to 1.86 fold. Further, where the note is “PTH (10^−8 M, 4 hours) + active 50 ppm (15 min preincubation)”, the “fold change in MMP-13 gene expression relative to the control sample, Average” value was 0.91 fold. Further, the “fold change in MMP-13 gene expression relative to the control sample, Average” value (PTH (10^−8 M, 4 hours) + active 100 ppm (15 min preincubation)) was 0.65 fold. Moreover, for the setting “active alone (no PTH), 0.1 ppm in simple solution”, the “fold change in MMP-13 gene expression relative to the control sample, Average” value is 1.07 fold. Moreover, the “fold change in MMP-13 gene expression relative to the control sample, Average” value (active alone (no PTH), 1 ppm in simple solution) is on record as 0.71 fold. Besides, the “fold change in MMP-13 gene expression relative to the control sample, Average” value under setting [2] is given as 0.65 fold. Further, the “fold change in MMP-13 gene expression relative to the control sample, Average” value (active alone (no PTH), 50 ppm in simple solution) was found to be 0.38 fold. Also, the “fold change in MMP-13 gene expression relative to the control sample, Average” value (active alone (no PTH), 100 ppm in simple solution) is 1.09 fold.
As to `CC(=O)Nc1ccc(OC(=O)OC2CC(C)CCC2C(C)C)cc1` (centres unmarked) [Compound B, 4-acetamidophenyl 2-isopropyl-5-methylcyclohexyl carbonate], the “effect” value is listed as “decreases the expression”. For the same compound, under setting [1], the “fold change in MMP-13 gene expression relative to the control sample, Average” value stood at 49.86 fold. The “fold change in MMP-13 gene expression relative to the control sample, Average” value under setting [2] was determined as 5.78 fold.
Consider `CC1CCC(C(C)C)C(OC(=O)Nc2ccccc2O)C1` (centres unmarked) [Compound A, 2-isopropyl-5-methylcyclohexyl 2-hydroxyphenylcarbantate], for which the “effect” value is “decreases the expression”. The “fold change in MMP-13 gene expression relative to the control sample, Average” value (PTH (10^−8 M, 4 hours) + active 7 ppm (15 min preincubation)) came out at 14.674 fold. The “fold change in MMP-13 gene expression relative to the control sample, Average” value (active alone (no PTH), 7 ppm in simple solution) is given as 7.41 fold.
On to `CC(=O)O[C@@H]1CC[C@@]2(C)[C@@H](CC[C@]3(C)[C@@H]2C(=O)C=C2[C@@H]4[C@@H](C)[C@H](C)CC[C@]4(C)CC[C@]23C)[C@@]1(C)C(=O)O` [AKBBA, Acetyl keto β-boswellic acid], for which the “effect” value is “decreases the expression”. Further, the “fold change in MMP-13 gene expression relative to the control sample, Average” value under setting [1] is given as 59.77 fold. Moreover, the “fold change in MMP-13 gene expression relative to the control sample, Average” value under setting [2] is 1.45 fold.

The record behind these values is patent US20150086490A1, “ORAL CARE COMPOSITIONS AND METHODS” (Colgate-Palmolive Company, priority 2009, published 2015).
